Measurements as given in publication PMC5065625, “Structure-mechanism-based engineering of chemical regulators targeting distinct pathological factors in Alzheimer's disease” (Nature Communications, 2016).

Legend:
5 × FAD AD mouse model = assay: Cerebral amyloid pathology (ELISA, 4G8 immunohistochemistry, Congo red); type: in vivo; conditions: 1 mg kg^−1 daily i.p., 30 days
Excerpt: (§1) The amyloidogenic characteristics of 5 × FAD mice have been described previously. In brief, 5 × FAD mice express the Swedish/London/Florida mutations of the human amyloid precursor protein (hAPP) and the M146L/L286V mutations of the human presenilin-1 (PSEN1). They develop the early and robust pathology of AD with the cognitive and behavioural impairments. The 5 × FAD mice have been widely used to test the possible efficacy of a compound targeted for AD[25][29]. We maintained the mice on a C57BL/6 × SJL hybrid background. All animal experiments were performed in accordance with the guidelines of the Asan Institute for Life Science for Laboratory Animal Care and Use (Seoul, Korea), where the animals had free access to water and food, and were housed on 12 h light/12 h dark cycle.
Chemicals used were freshly prepared shortly before administration to the animals. […]
We measured the levels of various types of Aβ in the brain as described previously. The protein fractions were serially prepared from the left hemispheres in PBS (pH 7.4), in 2% SDS and in 70% FA, and then subjected to the human Aβ40 and Aβ42 ELISA quantification according to the manufacturer's methods (Invitrogen, Carlsbad, CA, USA). The aggregated (Invitorgen) and oligomeric Aβ (82E1-specific; IBL International, Hamburg, Germany) ELISA quantifications were also performed using PBS fractions. The cerebral levels of Aβ40 and Aβ42 were represented as moles per gram of wet brain tissue, whereas the aggregated or oligomeric Aβ amounts were expressed as grams per gram of wet brain tissue.
12-μm sagittal sections of the brain were prepared from the right hemispheres on a cryostat (HM550; Microm, Walldorf, Germany), and mounted onto 1% poly-L-lysine-coated glass slides. […] The loads of amyloid deposits in the brain were expressed as the per cent area of 4G8-immunoreactive deposits or the number of congophilic plaques per mm^2 of a cortical region of interest.

5 × FAD mice = assay: Tolerability and body weight during 30-day treatment; type: in vivo, mouse
Excerpt: as §1
Chemicals used were freshly prepared shortly before administration to the animals. We treated 5 × FAD mice with 1 (1 mg kg^−1 of body weight) or the vehicle (1% v/v DMSO in 20 mM HEPES, pH 7.4, 150 mM NaCl) starting at 3 months of age, which is the same method used in our previous studies. 1 was daily injected into the lower abdomen of the 5 × FAD mice for 30 days.

[1] = 1 mg kg^−1 daily, intraperitoneal, 30 days, 5 × FAD mice

**Q.** Which results are given for `Nc1ccc(NCc2ccccn2)cc1` [compound 1, N^1-(pyridin-2-ylmethyl)benzene-1,4-diamine]?
**A.** Loads of Aβ deposits in the brain (5 × FAD AD mouse model; 4G8-immunoreactive or congophilic plaques): reduced the loads of Aβ deposits; Amounts of Aβ oligomers and aggregates (5 × FAD AD mouse model; ELISA, PBS fractions): decreased; Total Aβ level in the brain versus vehicle (5 × FAD AD mouse model; PBS-, SDS- and FA-soluble Aβ40/Aβ42, ELISA): significantly lower; Body weight versus vehicle-treated mice (5 × FAD mice; [1]): no difference in body weight; Tolerability of repeated treatments (5 × FAD mice; [1]): tolerated the repeated treatments; Body weight, female, day 1 (5 × FAD mice; 5×FAD mice, 1 mg/kg/day, mean): 20.8 gram; Body weight, female, day 3 (5 × FAD mice; 5×FAD mice, 1 mg/kg/day, mean): 20.8 gram; Body weight, female, day 6 (5 × FAD mice; 5×FAD mice, 1 mg/kg/day, mean): 20.8 gram; Body weight, female, day 9 (5 × FAD mice; 5×FAD mice, 1 mg/kg/day, mean): 21.0 gram; Body weight, female, day 12 (5 × FAD mice; 5×FAD mice, 1 mg/kg/day, mean): 21.2 gram; Body weight, female, day 15 (5 × FAD mice; 5×FAD mice, 1 mg/kg/day, mean): 20.8 gram; Body weight, female, day 18 (5 × FAD mice; 5×FAD mice, 1 mg/kg/day, mean): 21.2 gram; Body weight, female, day 21 (5 × FAD mice; 5×FAD mice, 1 mg/kg/day, mean): 21.4 gram; Body weight, female, day 24 (5 × FAD mice; 5×FAD mice, 1 mg/kg/day, mean): 21.4 gram; Body weight, female, day 27 (5 × FAD mice; 5×FAD mice, 1 mg/kg/day, mean): 21.8 gram; Body weight, female, day 30 (5 × FAD mice; 5×FAD mice, 1 mg/kg/day, mean): 21.6 gram; Body weight, male, day 1 (5 × FAD mice; 5×FAD mice, 1 mg/kg/day, mean): 28.0 gram; Body weight, male, day 3 (5 × FAD mice; 5×FAD mice, 1 mg/kg/day, mean): 27.6 gram; Body weight, male, day 6 (5 × FAD mice; 5×FAD mice, 1 mg/kg/day, mean): 27.6 gram; Body weight, male, day 9 (5 × FAD mice; 5×FAD mice, 1 mg/kg/day, mean): 27.8 gram; Body weight, male, day 12 (5 × FAD mice; 5×FAD mice, 1 mg/kg/day, mean): 27.4 gram; Body weight, male, day 15 (5 × FAD mice; 5×FAD mice, 1 mg/kg/day, mean): 27.8 gram; Body weight, male, day 18 (5 × FAD mice; 5×FAD mice, 1 mg/kg/day, mean): 28.0 gram; Body weight, male, day 21 (5 × FAD mice; 5×FAD mice, 1 mg/kg/day, mean): 27.8 gram; Body weight, male, day 24 (5 × FAD mice; 5×FAD mice, 1 mg/kg/day, mean): 27.6 gram; Body weight, male, day 27 (5 × FAD mice; 5×FAD mice, 1 mg/kg/day, mean): 28.0 gram; Body weight, male, day 30 (5 × FAD mice; 5×FAD mice, 1 mg/kg/day, mean): 27.0 gram
